Columns and labels:
Nitric oxide synthase 1 = Nitric oxide synthase 1 (Rattus norvegicus, UniProt P29476); experiment: Inhibition of recombinant rat nNOS assessed as conversion of L-arginine to citrulline after 30 mins
Nitric oxide synthase 3 = Nitric oxide synthase 3 (Homo sapiens, UniProt P29474); experiment: Inhibition of eNOS (unknown origin)
[1] = Selectivity ratio of IC50 for eNOS (unknown origin) to IC50 for recombinant rat nNOS
[2] = Drug metabolism in human liver microsomes after 20 mins; format: ADME; conditions: read-out: Drug metabolism

Sequence of Nitric oxide synthase 3 (P29474 whole entry, looked up): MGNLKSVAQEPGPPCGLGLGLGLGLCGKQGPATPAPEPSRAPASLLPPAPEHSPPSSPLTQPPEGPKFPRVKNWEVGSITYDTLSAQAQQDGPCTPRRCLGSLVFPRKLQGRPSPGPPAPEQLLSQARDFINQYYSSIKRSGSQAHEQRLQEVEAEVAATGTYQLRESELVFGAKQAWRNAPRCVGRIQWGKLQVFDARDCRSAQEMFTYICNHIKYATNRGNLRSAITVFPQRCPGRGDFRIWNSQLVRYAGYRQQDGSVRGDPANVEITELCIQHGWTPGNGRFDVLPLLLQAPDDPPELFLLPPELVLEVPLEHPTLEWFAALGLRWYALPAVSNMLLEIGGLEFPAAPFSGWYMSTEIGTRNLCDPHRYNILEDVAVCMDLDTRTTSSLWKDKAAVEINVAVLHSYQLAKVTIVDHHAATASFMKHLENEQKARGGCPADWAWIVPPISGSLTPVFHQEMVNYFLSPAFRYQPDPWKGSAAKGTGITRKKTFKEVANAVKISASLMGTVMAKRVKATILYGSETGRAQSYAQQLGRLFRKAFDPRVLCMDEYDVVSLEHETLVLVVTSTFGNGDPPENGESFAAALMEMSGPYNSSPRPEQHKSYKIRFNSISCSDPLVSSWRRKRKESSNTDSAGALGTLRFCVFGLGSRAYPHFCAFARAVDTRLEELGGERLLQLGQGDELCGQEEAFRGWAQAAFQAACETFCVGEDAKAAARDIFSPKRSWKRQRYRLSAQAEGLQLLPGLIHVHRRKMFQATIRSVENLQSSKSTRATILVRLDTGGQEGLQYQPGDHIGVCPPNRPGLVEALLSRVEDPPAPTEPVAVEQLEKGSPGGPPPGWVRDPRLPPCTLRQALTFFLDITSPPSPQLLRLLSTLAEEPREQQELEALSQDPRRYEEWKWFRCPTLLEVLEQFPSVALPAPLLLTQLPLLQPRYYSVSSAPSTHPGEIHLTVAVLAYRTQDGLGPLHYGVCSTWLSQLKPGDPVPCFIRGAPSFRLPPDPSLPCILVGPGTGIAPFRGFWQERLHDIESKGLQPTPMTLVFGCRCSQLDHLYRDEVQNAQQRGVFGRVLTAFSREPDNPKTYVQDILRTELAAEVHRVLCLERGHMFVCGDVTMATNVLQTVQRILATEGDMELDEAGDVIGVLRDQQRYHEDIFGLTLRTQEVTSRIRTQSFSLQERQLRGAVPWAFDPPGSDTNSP
Sequence of Nitric oxide synthase 1 (P29476 whole entry): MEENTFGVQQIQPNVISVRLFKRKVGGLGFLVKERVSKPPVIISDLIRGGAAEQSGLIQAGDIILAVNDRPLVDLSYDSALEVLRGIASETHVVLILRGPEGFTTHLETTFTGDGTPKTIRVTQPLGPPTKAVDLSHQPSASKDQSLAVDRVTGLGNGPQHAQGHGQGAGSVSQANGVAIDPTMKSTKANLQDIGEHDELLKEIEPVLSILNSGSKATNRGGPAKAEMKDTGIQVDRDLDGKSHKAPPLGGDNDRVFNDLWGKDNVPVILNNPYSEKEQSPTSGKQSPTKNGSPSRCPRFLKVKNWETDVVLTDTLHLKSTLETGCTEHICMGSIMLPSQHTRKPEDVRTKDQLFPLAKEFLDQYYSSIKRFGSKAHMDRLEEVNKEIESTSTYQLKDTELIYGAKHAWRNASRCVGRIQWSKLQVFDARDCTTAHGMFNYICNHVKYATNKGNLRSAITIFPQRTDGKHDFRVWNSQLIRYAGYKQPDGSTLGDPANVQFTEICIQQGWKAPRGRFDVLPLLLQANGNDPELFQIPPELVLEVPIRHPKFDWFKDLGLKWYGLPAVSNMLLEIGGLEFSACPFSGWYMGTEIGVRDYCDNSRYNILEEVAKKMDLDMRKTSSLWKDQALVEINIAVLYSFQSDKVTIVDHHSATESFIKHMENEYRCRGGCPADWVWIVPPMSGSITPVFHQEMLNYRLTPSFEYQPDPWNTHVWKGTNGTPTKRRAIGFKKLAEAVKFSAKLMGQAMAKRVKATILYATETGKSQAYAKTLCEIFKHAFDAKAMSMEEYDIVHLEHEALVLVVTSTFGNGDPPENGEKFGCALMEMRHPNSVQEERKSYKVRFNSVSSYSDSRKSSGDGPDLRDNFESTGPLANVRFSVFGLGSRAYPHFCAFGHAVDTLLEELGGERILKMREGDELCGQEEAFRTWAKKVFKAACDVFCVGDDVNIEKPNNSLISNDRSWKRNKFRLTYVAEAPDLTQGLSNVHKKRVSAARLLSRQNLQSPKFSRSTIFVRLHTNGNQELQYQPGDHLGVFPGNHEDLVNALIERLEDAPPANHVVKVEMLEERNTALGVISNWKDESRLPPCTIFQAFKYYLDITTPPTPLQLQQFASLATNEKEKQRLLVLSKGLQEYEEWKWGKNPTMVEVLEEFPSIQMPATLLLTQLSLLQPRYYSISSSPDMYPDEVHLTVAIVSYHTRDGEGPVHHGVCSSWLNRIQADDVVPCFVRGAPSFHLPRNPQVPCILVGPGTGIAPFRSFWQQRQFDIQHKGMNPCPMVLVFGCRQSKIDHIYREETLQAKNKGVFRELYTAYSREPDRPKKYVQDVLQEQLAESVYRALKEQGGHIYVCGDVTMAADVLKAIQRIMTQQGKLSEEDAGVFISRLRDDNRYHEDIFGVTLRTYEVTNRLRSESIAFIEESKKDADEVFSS

Row | SMILES | IC50 (Nitric oxide synthase 1) [µM] | IC50 (Nitric oxide synthase 3) [µM] | Ratio IC50 [1] | metabolised at 20 min [2] [%]
1 | N=C(Nc1cccc(C2(O)CCN(CCc3cccc(Cl)c3Cl)CC2)c1)c1cccs1 | 0.129 | 100 | 775 | 23
2 | CCCS(=O)(=O)N1CCC(O)(c2cccc(NC(=N)c3cccs3)c2)CC1 | 0.706 | 18.2 | 26 | 25
3 | N=C(Nc1cccc(C2(O)CCN(CCc3cccc(Cl)c3)CC2)c1)c1cccs1 | 0.131 | 57.5 | 438 | 39
4 | N=C(Nc1cccc(C2(O)CCN(C(=O)OCc3ccccc3)CC2)c1)c1cccs1 | 0.376 | 60.1 | 159 | 77
5 | N=C(Nc1cccc(C2(O)CCN(CCc3ccc(Cl)c(Cl)c3)CC2)c1)c1cccs1 | 0.017 | 28.3 | 1660 | 32
6 | CC(C)S(=O)(=O)N1CCC(O)(c2cccc(NC(=N)c3cccs3)c2)CC1 | 0.551 | 23 | 42 | 16
7 | CCCCNC(=O)N1CCC(O)(c2cccc(NC(=N)c3cccs3)c2)CC1 | 0.694 | 10 | 14 | 54
